Results as given in the supplement of paper PMC4862054.

Tests used:
Assay in all cases: normalised response (% of control), CellTiter-Glo; higher = more viable cells (100 = DMSO, 0 = benzethonium chloride kill control)
Conditions in all cases: incubation time: 72 h
[1] = test system: BT-549
Summary of the method: (§1)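 Compound was dispensed into 384-well plates at 5 concentrations in 10-fold steps spanning a 10,000-fold range specific to that compound. Breast cancer cell lines were added as 20 µl suspension and left for 72 h before CellTox Green fluorescence (485/520 nm) and then CellTiter-Glo luminescence, read after 10 min at room temperature. Each reported value is the normalised signal at one concentration, with 0.1 % DMSO set at 100 and a positive kill control at 0 on each plate.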

[2] = test system: MCF-10A
Summary of the method: as §1

[3] = test system: CAL-85-1
Summary of the method: as §1

[4] = test system: MDA-MB-436
Summary of the method: as §1

[5] = test system: SK-BR-3
Summary of the method: as §1

[6] = test system: DU-4475
Summary of the method: as §1

[7] = test system: HCC1937
Summary of the method: as §1

[8] = test system: CAL-120
Summary of the method: as §1

[9] = test system: HCC1143
Summary of the method: as §1

[10] = test system: Hs578T
Summary of the method: as §1

[11] = test system: BT-474
Summary of the method: as §1

[12] = test system: HDQ-P1
Summary of the method: as §1

[13] = test system: MDA-MB-453
Summary of the method: as §1

[14] = test system: CAL-148
Summary of the method: as §1

[15] = test system: CAL-51
Summary of the method: as §1

[16] = test system: MDA-MB-468
Summary of the method: as §1

[17] = test system: MDA-MB-231
Summary of the method: as §1

[18] = test system: MFM-223
Summary of the method: as §1

[19] = test system: HCC1599
Summary of the method: as §1

Structure (SMILES)	normalised response [1] [%]	normalised response [2] [%]	normalised response [3] [%]	normalised response [4] [%]	normalised response [5] [%]	normalised response [6] [%]	normalised response [7] [%]	normalised response [8] [%]	normalised response [9] [%]	normalised response [10] [%]	normalised response [11] [%]	normalised response [12] [%]	normalised response [13] [%]	normalised response [14] [%]	normalised response [15] [%]	normalised response [16] [%]	normalised response [17] [%]	normalised response [18] [%]	normalised response [19] [%]
CC(=O)O[C@]1(C(C)=O)CC[C@H]2[C@@H]3C=C(C)C4=CC(=O)CC[C@]4(C)[C@H]3CC[C@@]21C [Megestrol acetate] (1 nM)	97.7	101	98.9	101	99.2	97.5	95.4	94.9	95.2	96.8	95.9	99.8	131	99.9	120	88.8	98.5	98	96.5
CC(=O)O[C@]1(C(C)=O)CC[C@H]2[C@@H]3C=C(C)C4=CC(=O)CC[C@]4(C)[C@H]3CC[C@@]21C [Megestrol acetate] (10 nM)	100	107	98	96.3	102	96.6	95	98.1	104	96.9	102	104	103	86.9	83.4	107	101	97.1	105
S=c1[nH]cnc2nc[nH]c12 [Mercaptopurine] (10 nM)	97.7	103	94.5	98	109	98.5	93.1	98.5	106	100	98.6	97.1	93	83.4	119	94.3	96	97.2	89.8
Clc1ccc(C(c2ccccc2Cl)C(Cl)Cl)cc1 (stereo not given) [Mitotane] (10 nM)	104	96.4	106	89.8	98.1	103	99	101	101	103	93.1	97	109	91.2	104	94	99.8	99	132
CCN1CCN(c2ccc(Nc3cc(N(C)C(=O)Nc4c(Cl)c(OC)cc(OC)c4Cl)ncn3)cc2)CC1 [NVP-BGJ398] (0.1 nM)	99.8	101	93.4	97.6	99	101	95.6	92	98.2	97.3	96.7	101	84.1	97.7	74.7	88.2	95.4	96.6	98.7
CCN1CCN(c2ccc(Nc3cc(N(C)C(=O)Nc4c(Cl)c(OC)cc(OC)c4Cl)ncn3)cc2)CC1 [NVP-BGJ398] (1 nM)	96	108	98.3	97.7	108	99	104	97.2	98.8	103	94.9	101	97.7	96.1	118	100	95.8	97.1	88.4
COc1cccc2cc(-c3nc([C@H]4CC[C@H](C(=O)O)CC4)n4ncnc(N)c34)[nH]c12 [OSI-027] (10 nM)	93.8	98.8	90.7	93.8	77.3	97.1	94.2	101	96.6	97.7	101	100	94.3	88.7	82.7	94.6	96	93	92.7
OC[C@H]1O[C@@H](n2cnc3c2N=CNC[C@H]3O)C[C@@H]1O [Pentostatin] (10 nM)	91.2	99.9	102	97.3	101	104	98.2	98	98.9	106	98	100	103	102	78	94.4	99.2	101	104
N#CC[C@H](C1CCCC1)n1cc(-c2ncnc3[nH]ccc23)cn1 [Ruxolitinib] (10 nM)	98.3	88.8	91.2	92.2	81.5	97.4	89.3	104	100	96.2	97	94	83.8	86	121	100	95.2	92.6	76.5
C=CC[C@@H]1/C=C(\C)C[C@H](C)C[C@H](OC)[C@H]2O[C@@](O)(C(=O)C(=O)N3CCCC[C@H]3C(=O)O[C@H](/C(C)=C/[C@@H]3CC[C@@H](O)[C@H](OC)C3)[C@H](C)[C@@H](O)CC1=O)[C@H](C)C[C@@H]2OC [Tacrolimus] (10 nM)	101	103	99	106	119	105	100	97.7	103	103	105	100	109	97.4	110	97.6	100	98.8	102
